biological target: T1, N-terminal 6His-tagged ROCK2 catalytic domain 11-552 (Homo sapiens, UniProt O75116); assay: ROCK2 binding activity: ROCK2 inhibition, ADP-Glo Kinase Assay; assay type: biochemical; conditions: 1.25 nM ROCK2, 100 μM long S6 peptide, 20 μM ATP; 1 hour pre-incubation; read-out: ADP-Glo kinase activity assay ROCK2 Category
T1 construct: N-terminal 6His-tagged ROCK2 catalytic domain 11-552; 6His (N); purchased Dundee University, UK; host or cells: baculovirus expression system
Description: Assay for ROCK2 inhibition was performed using the protein construct N-terminal 6His-tagged ROCK2 catalytic domain 11-552 (Dundee University, UK). Protein was purified from a baculovirus expression system. Long S6 peptide ([…]) was used as substrate. Kinase reactions were carried out in 15 μl volume in a 96-well plate (black, half area) using 1.25 nM constitutively active ROCK2 kinase, 100 μM long S6 peptide, 20 μM ATP and test compound in DMSO (or DMSO only for controls). The final concentration of DMSO was 1%. Assay buffer was 50 mM HEPES pH 7.5 supplemented with 0.2 mM EDTA, 10 mM magnesium acetate, 0.01% Tween-20, 1 mM DTT and 0.01% BSA. Test compounds were pre-incubated with ROCK2 kinase for 1 hour before addition of ATP and long S6 peptide. After incubation for a further 1 hour, the amount of ADP produced was measured using ADP-Glo Kinase Assay (Promega) as per manufacturer's instructions. The luminescence was measured on a PHERAstar FS (BMG Labtech). The concentration of test compound required to inhibit ADP production by 50% (the IC50) was calculated using a four-parameter logistic function with software by Dotmatics.
The category “+” refers to compounds with a ROCK2 IC50 value of >10 μM. The category “++” refers to compounds with a ROCK2 IC50 value of 10 to 3 μM. The category “+++” refers to compounds with a ROCK2 IC50 value of 3 to 0.3 μM. The category “++++” refers to compounds with a ROCK2 IC50 value of <0.3 μM.

T1 sequence (O75116 11-552): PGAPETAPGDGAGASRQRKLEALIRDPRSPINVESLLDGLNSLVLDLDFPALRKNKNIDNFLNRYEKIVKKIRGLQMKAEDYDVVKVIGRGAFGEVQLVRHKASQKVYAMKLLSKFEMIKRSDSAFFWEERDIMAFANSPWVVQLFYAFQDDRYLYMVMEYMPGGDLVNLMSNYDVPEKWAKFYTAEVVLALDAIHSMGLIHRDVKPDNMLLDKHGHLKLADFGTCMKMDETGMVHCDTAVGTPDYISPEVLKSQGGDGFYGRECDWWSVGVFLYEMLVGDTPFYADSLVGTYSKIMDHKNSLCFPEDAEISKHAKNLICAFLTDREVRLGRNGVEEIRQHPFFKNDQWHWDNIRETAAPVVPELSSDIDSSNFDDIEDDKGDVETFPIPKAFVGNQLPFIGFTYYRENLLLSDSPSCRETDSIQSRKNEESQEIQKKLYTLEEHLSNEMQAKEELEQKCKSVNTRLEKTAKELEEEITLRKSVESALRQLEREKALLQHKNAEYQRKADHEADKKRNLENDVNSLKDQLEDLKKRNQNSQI

Compound | IC50 [nM]
CCC(=O)Nc1ccc(-c2nc(Nc3ccc4[nH]ncc4c3Cl)n(C)n2)cc1OC [Example 83] | < 300
Cn1nc(C2=CCC(N)CC2)nc1Nc1ccc2[nH]ncc2c1Cl (centres unmarked) [Example 84] | > 10000
COCCOc1cccc(-c2nc(Nc3ccc4[nH]ncc4c3Cl)n(C)n2)c1 [Example 85] | < 300
COc1cc(-c2nc(Nc3ccc4[nH]ncc4c3Cl)n(C)n2)ccc1NCC(=O)NC(C)C [Example 87] | < 300
Cn1nc(-c2ccccc2O)nc1Nc1ccc2[nH]ncc2c1Cl [Example 89] | < 300
Cn1nc(-c2ccc(O)cc2)nc1Nc1ccc2[nH]ncc2c1Cl [Example 91] | < 300
CN(C)CCNC(=O)c1ccc(-c2nc(Nc3ccc4[nH]ncc4c3Cl)n(C)n2)cc1 [Example 94] | < 300
CN1CCc2cc(-c3nc(Nc4ccc5[nH]ncc5c4Cl)n(C)n3)ccc2C1=O [Example 97] | < 300
Cn1nc(C2=CCOCC2)nc1Nc1ccc2[nH]ncc2c1Cl [Example 98] | > 10000
COc1ccc(-c2nc(Nc3ccc4[nH]ncc4c3Cl)n(C)n2)cc1 [Example 99] | < 300
COc1cc(-c2nc(Nc3ccc4[nH]ncc4c3Cl)n(C)n2)ccc1O [Example 101] | < 300
Cn1nc(-c2ccc(N3CCOCC3)cc2)nc1Nc1ccc2[nH]ncc2c1Cl [Example 102] | < 300
Cn1nc(-c2ccc(CN3CCOCC3)cc2)nc1Nc1ccc2[nH]ncc2c1Cl [Example 105] | < 300
Cc1cc(-c2nc(Nc3ccc4[nH]ncc4c3Cl)n(C)n2)n(C)n1 [Example 107] | 300 to 3000
Cc1ccc(-c2nc(Nc3ccc4[nH]ncc4c3Cl)n(C)n2)cn1 [Example 109] | 3000 to 10000
Cn1nc(-c2cccc(C#N)c2)nc1Nc1ccc2[nH]ncc2c1Cl [Example 110] | 300 to 3000
Cn1nc(-c2cn[nH]c2)nc1Nc1ccc2[nH]ncc2c1Cl [Example 111] | 300 to 3000
CC(C)n1nccc1-c1nc(Nc2ccc3[nH]ncc3c2Cl)n(C)n1 [Example 112] | 300 to 3000
COCc1cccc(-c2nc(Nc3ccc4[nH]ncc4c3Cl)n(C)n2)c1 [Example 113] | > 10000
COc1ccc(F)c(-c2nc(Nc3ccc4[nH]ncc4c3Cl)n(C)n2)c1 [Example 114] | < 300
COCCn1cc(-c2nc(Nc3ccc4[nH]ncc4c3Cl)n(C)n2)cn1 [Example 115] | < 300
Cn1nc(-c2cnn(CCN3CCOCC3)c2)nc1Nc1ccc2[nH]ncc2c1Cl [Example 117] | 300 to 3000

Compound | IC50 [nM]
COC(=O)c1ccc(-c2nc(Nc3ccc4[nH]ncc4c3Cl)n(C)n2)cc1OC [Example 118] | < 300
Cn1ccc(-c2nc(Nc3ccc4[nH]ncc4c3Cl)n(C)n2)n1 [Example 119] | 3000 to 10000
Cn1nc(-c2c[nH]c3ccncc23)nc1Nc1ccc2[nH]ncc2c1Cl [Example 121] | 3000 to 10000
Cn1nc(-c2ccccc2N)nc1Nc1ccc2[nH]ncc2c1Cl [Example 123] | 300 to 3000
CNC(=O)c1ccc(-c2nc(Nc3ccc4[nH]ncc4c3Cl)n(C)n2)cn1 [Example 124] | < 300
Cn1nc(-c2ccc(S(N)(=O)=O)cc2)nc1Nc1ccc2[nH]ncc2c1Cl [Example 125] | < 300
CN(C)c1ccc(-c2nc(Nc3ccc4[nH]ncc4c3Cl)n(C)n2)cn1 [Example 127] | 300 to 3000
Cn1nc(-c2ccc(CN)c(F)c2)nc1Nc1ccc2[nH]ncc2c1Cl [Example 128] | < 300
Cn1nc(-c2cccc(N)c2)nc1Nc1ccc2[nH]ncc2c1Cl [Example 132] | 300 to 3000
COc1cc(-c2nc(Nc3ccc4[nH]ncc4c3C)n(C)n2)ccc1OCC(=O)NC1CCNC1 (centres unmarked) [Example 141] | < 300
COc1cc(-c2nc(Nc3cc4cn[nH]c4cc3Cl)n(C)n2)ccc1C(=O)NCC(F)(F)F [Example 144] | 3000 to 10000
COc1cc(-c2nc(Nc3ccc4[nH]ncc4c3Cl)n(C(C)C)n2)ccc1OCC(=O)NC(C)C [Example 145] | < 300
COc1cc(-c2nnc(Nc3ccc4[nH]ncc4c3)n2-c2ccccn2)ccc1OCC(=O)NC(C)C [Example 147] | < 300
COc1cc(-c2nc(Nc3ccc4[nH]ncc4c3Cl)n(-c3ccccc3)n2)ccc1OCC(=O)NC1CCNC1 (centres unmarked) [Example 149] | < 300
COc1cc(-c2nc(Nc3ccc4[nH]ncc4c3Cl)n(-c3ccccn3)n2)ccc1C(=O)NCC(F)(F)F [Example 153] | < 300
O=C(COc1ccc(-c2nnc(Nc3ccc4[nH]ncc4c3)[nH]2)cc1)N1CCOCC1 [Example 154, 2-[4-[5-(1H-Indazol-5-ylamino)-4H-1,2,4-triazol-3-yl]phenoxy]-1-morpholinoethanone] | 300 to 3000
O=C(COc1ccc(-c2nnc(Nc3ccc4[nH]ncc4c3)[nH]2)cc1)N[C@@H]1CCNC1 [Example 157] | < 300
O=C(COc1ccc(-c2nnc(Nc3ccc4[nH]ncc4c3)[nH]2)cc1)N[C@H]1CCNC1 [Example 158] | < 300
O=C(COc1ccc(-c2nnc(Nc3ccc4[nH]ncc4c3)[nH]2)cc1)NC1CCC1 [Example 161] | < 300
O=C(COc1ccc(-c2nnc(Nc3ccc4[nH]ncc4c3)[nH]2)cc1)NC1CC1 [Example 162] | < 300
CN1CCC(NC(=O)COc2ccc(-c3nnc(Nc4ccc5[nH]ncc5c4)[nH]3)cc2)C1 (centres unmarked) [Example 163] | 300 to 3000

Continued, values first:

IC50 [nM] | Compound
3000 to 10000 | Cn1nc(-c2ccc(S(=O)(=O)N3CCOCC3)cc2)nc1Nc1ccc2[nH]ncc2c1Cl [Example 78]
3000 to 10000 | Cn1nc(C2=CCCNC2)nc1Nc1ccc2[nH]ncc2c1Cl [Example 81]
300 to 3000 | CN(C)C(=O)c1ccc(-c2nc(Nc3ccc4[nH]ncc4c3Cl)n(C)n2)cc1 [Example 82]
< 300 | COc1ccc(-c2nc(Nc3ccc4[nH]ncc4c3Cl)n(C)n2)cc1Cl [Example 86]
300 to 3000 | Cn1nc(-c2ccc(CO)cc2)nc1Nc1ccc2[nH]ncc2c1Cl [Example 88]
< 300 | CCOC(=O)c1cncc(-c2nc(Nc3ccc4[nH]ncc4c3Cl)n(C)n2)c1 [Example 90]
3000 to 10000 | Cn1nc(-c2cccnc2)nc1Nc1ccc2[nH]ncc2c1Cl [Example 93]
300 to 3000 | Cn1nc(-c2ccco2)nc1Nc1ccc2[nH]ncc2c1Cl [Example 96]
< 300 | CC(C)Oc1ccc(-c2nc(Nc3ccc4[nH]ncc4c3Cl)n(C)n2)cn1 [Example 103]
< 300 | COc1ccc(-c2nc(Nc3ccc4[nH]ncc4c3Cl)n(C)n2)c(F)c1 [Example 104]
< 300 | Cn1nc(-c2ccc(C(=O)NCC3CCCO3)cc2)nc1Nc1ccc2[nH]ncc2c1Cl (centres unmarked) [Example 106]
300 to 3000 | Cn1nc(C2=CCCC2)nc1Nc1ccc2[nH]ncc2c1Cl [Example 108]
3000 to 10000 | Cn1nc(-c2cccc(N)c2)nc1Nc1ccc2[nH]ncc2c1Cl [Example 120]
< 300 | Cn1nc(-c2ccc(OCCn3ccc(=O)cc3)cc2)nc1Nc1ccc2[nH]ncc2c1Cl [Example 122]
300 to 3000 | Cn1nc(-c2cncc(O)c2)nc1Nc1ccc2[nH]ncc2c1Cl [Example 129]
< 300 | Cn1nc(-c2cncc(N)c2)nc1Nc1ccc2[nH]ncc2c1Cl [Example 130]

IC50 [nM] | Compound
< 300 | Cn1nc(-c2ccc(C(N)=O)cc2)nc1Nc1ccc2[nH]ncc2c1Cl [Example 131]
300 to 3000 | Cn1nc(-c2ccnc(N)c2)nc1Nc1ccc2[nH]ncc2c1Cl [Example 133]
300 to 3000 | Cn1nccc1-c1nc(Nc2ccc3[nH]ncc3c2Cl)n(C)n1 [Example 134]
< 300 | CNC(=O)c1cccc(-c2nc(Nc3ccc4[nH]ncc4c3Cl)n(C)n2)c1 [Example 135]
300 to 3000 | Cn1nc(-c2cccc(OC(F)(F)F)c2)nc1Nc1ccc2[nH]ncc2c1Cl [Example 136]
300 to 3000 | Cn1nc(-c2ccc(Oc3ccccc3)cc2)nc1Nc1ccc2[nH]ncc2c1Cl [Example 137]
< 300 | Cn1nc(-c2ccc(OC(F)(F)F)cc2)nc1Nc1ccc2[nH]ncc2c1Cl [Example 138]
< 300 | CC(C)NC(=O)COc1ccc(-c2nc(Nc3ccc4[nH]ncc4c3)n(-c3ccccc3F)n2)cc1 [Example 146]
< 300 | CC(C)NC(=O)COc1ccc(-c2nnc(Nc3ccc4[nH]ncc4c3)n2-c2ccccn2)cc1 [Example 148]
> 10000 | COc1cc(-c2nc(Nc3ccc4[nH]ncc4c3Cl)n(-c3ccccn3)n2)ccc1OCC(=O)NC(C)C [Example 151]
< 300 | COc1cc(-c2nc(Nc3ccc4[nH]ncc4c3Cl)n(-c3ccncc3)n2)ccc1OCC(=O)NC(C)C [Example 152]
300 to 3000 | COCCNC(=O)COc1ccc(-c2nnc(Nc3ccc4[nH]ncc4c3)[nH]2)cc1 [Example 155]
< 300 | O=C(COc1ccc(-c2nnc(Nc3ccc4[nH]ncc4c3)[nH]2)cc1)NC1CCNC1 (centres unmarked) [Example 156]
300 to 3000 | O=C(COc1ccc(-c2nnc(Nc3ccc4[nH]ncc4c3)[nH]2)cc1)NC1CCOC1 (centres unmarked) [Example 159]
< 300 | O=C(COc1ccc(-c2nnc(Nc3ccc4[nH]ncc4c3)[nH]2)cc1)NC1CCCC1 [Example 160]

Reference: US11497751B2, “Modulators of Rho-associated protein kinase” (Redx Pharma PLC, priority 2018, dated 2022)
